Like-named read-outs stand apart in the source and are kept apart here.

One compound from US20250214978A1, “AT2R AGONIST” (WUHAN HUMANWELL INNOVATIVE DRUG RESEARCH AND DEVELOPMENT …, priority 2022, published 2025) can be followed below.

Assay type in all cases: in vitro ADME
Data set [1] deals with CYP2C8 (Homo sapiens (Human), UniProt P10632). The data set is described as follows: CYP inhibition assay in mixed human liver microsomes. The settings on record: mixed (pooled) human liver microsomes, read-out: Inhibition rate % CYP2C8. The method, then: The inhibitory effects of the compounds on seven enzymes, i.e., CYP1A2, CYP2C9, CYP2C19, CYP2D6, CYP3A4 (midazolam), CYP2B6, and CYP2C8, were evaluated at a concentration of 10 μM. Mixed human liver microsomes, which were previously stored in a −80° C. refrigerator before use, were taken out and thawed in a water bath at 37° C. before use, and placed on ice for further operation. 100 μL of microsome working solution was taken, and added with 2 μL of test product or positive inhibitor working solution. 2 μL of solvent was added to the solvent control. The mixture was pre-incubated in a water bath at 37° C. for 10 minutes. After preincubation, 98 μL of NADPH regeneration solution was added to all samples to initiate the reaction. Then, the samples were put back into the water bath and incubated for a period of time. The reaction was quenched with 200 μL of stop solution. The plate was centrifuged at 3,220 g for 10 minutes, 100 μL of supernatant was transferred, and 100 μL of water was added and mixed well to the assay plate for LC/MS/MS analysis.

The nature of data set [2]: Free plasma protein binding (PPB) assay, equilibrium dialysis. The following applies: dialysis 6 hours at 37° C. The method, then: The dried dialysis membrane was soaked in ultrapure water for 1 hour, then soaked in 20% ethanol for 20 minutes, and then rinsed with ultrapure water for 2 to 3 times. Finally, the dried dialysis membrane was soaked in ultrapure water for 20 minutes for later use. The frozen plasma was thawed in a water bath at 37° C. for about 20 minutes. pH value of the plasma was measured after thawing was complete, and was adjusted to 7.4 with 1% phosphoric acid solution or 0.1M sodium hydroxide solution. […] The pretreated dialysis membrane was assembled into the dialysis plate according to product instructions, and 100 μL of receiving solution (100 mM phosphate buffer solution plus 0.002% Tween 80) was added to one side of the permeable membrane in each dialysis well. 20 μL of each of the final solution of the test compound and the final solution of the control compound were taken in a 96-well sample plate, two duplicate samples were made, and T0 sample was obtained, which was stored in a −20° C. refrigerator. Another 100 μL of each of the above-mentioned final solutions were taken to the other side of the membrane in the dialysis device, two duplicate samples were made, and incubated at 37° C. with constant shaking for 6 hours. After 6 hours of incubation, 20 μL of each of the dialyzed receiving solution and the administered plasma were taken, two duplicate samples were made, and sample A and sample B were obtained. Corresponding blank plasma or receiving solution of corresponding volume were added to sample B and sample A, respectively, allowing the volume ratio of plasma to buffer in each sample well to be 1:1. 300 μL of sample-containing internal standard acetonitrile solution was added to all the sample wells. The mixture was mixed well, and centrifuged at 5,500×g for 10 minutes. 150 μL of corresponding ultrapure water was added to the corresponding sample wells of the 96-well sample plate. 150 μL of the supernatant was taken into the sample wells, and mixed well. Then, LC/MS/MS analysis was performed. The calculation formula of fu is: […]
where: CR: peak area ratio measured in the receiving chamber well CD: peak area ratio measured in the supply chamber well.
Background: In equilibrium dialysis only unbound substance equilibrates across the membrane.

Data set [3] in a line: Liver microsome stability assay. The settings on record: Rat liver microsomes; read-out: T1/2 (min) Rat. On the technique in general: Liver microsomes are vesicles of endoplasmic reticulum, rich in cytochrome P450 enzymes.
Data set [4] in a line: Liver microsome stability assay. The following applies: Mouse liver microsomes; read-out: T1/2 (min) Mouse.
Data set [5] is described as follows: Liver microsome stability assay. The settings on record: dog; Canine liver microsomes; read-out: T1/2 (min) Canine.
In data set [6] the test system is Caco-2 cells. The data set is described as follows: Bidirectional permeability study in CACO-2 cells. The settings on record: Caco-2 monolayer, 2.00 μM, 2 hours, pH 7.40. As to the method: Caco-2 cells were inoculated onto polyethylene membrane (PET) in 96-well inserted plates at a rate of 1×10^5 cells/cm^2, and the medium was changed every 4 to 5 days until day 21 to 28, to form a fused cell monolayer. The transport buffer in the assay was HBSS and 10.0 mM HEPES, with a pH of 7.40±0.05. The test compounds were subjected to a bidirectional test at 2.00 μM in the presence and absence of GF120918 (10.0 μM). Digoxin was subjected to a bidirectional test at 10.0 μM in the presence and absence of GF120918 (10.0 μM), while Nadolol and Metoprolol were subjected to a test from direction A to direction B at 2.00 μM in the absence of GF120918 (10.0 μM). The above tests were performed in duplicate. The final concentration of DMSO was adjusted to be lower than 1%. The plate was incubated in a CO2 incubator at 37° C.±1° C. for 2 hours, and 5% CO2 was added under saturated humidity without shaking. All the samples, after being mixed with acetonitrile containing internal standard, were centrifuged at 3,200 g for 10 minutes. […] The concentrations of the test compounds and control compounds in the starting solution, the donor solution, and the acceptor solution were quantified by LC-MS/MS based on a peak area ratio of the analyte to the internal standard.
After the transport assay, the integrity of the Caco-2 cell monolayer was determined using Lucifer Yellow Exclusion Assay.
Background: Caco-2 cells form a polarised layer with tight junctions and transporters.

Chain of CYP2C8 (P10632 whole entry): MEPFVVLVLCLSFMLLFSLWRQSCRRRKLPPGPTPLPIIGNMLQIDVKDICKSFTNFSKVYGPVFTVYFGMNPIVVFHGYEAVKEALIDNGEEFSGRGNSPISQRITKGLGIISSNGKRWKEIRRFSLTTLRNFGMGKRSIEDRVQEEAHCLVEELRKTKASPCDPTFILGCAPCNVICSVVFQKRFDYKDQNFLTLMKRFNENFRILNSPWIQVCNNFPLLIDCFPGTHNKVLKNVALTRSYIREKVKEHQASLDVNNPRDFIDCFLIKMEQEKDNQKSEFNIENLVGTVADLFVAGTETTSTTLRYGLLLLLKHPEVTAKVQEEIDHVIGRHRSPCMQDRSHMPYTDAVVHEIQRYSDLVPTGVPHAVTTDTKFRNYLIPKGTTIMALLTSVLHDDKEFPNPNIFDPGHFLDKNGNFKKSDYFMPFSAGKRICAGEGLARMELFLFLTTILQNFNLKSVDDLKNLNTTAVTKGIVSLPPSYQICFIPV

Regarding `CCCCOC(=O)NS(=O)(=O)c1sc(CC(C)C)cc1-c1ccc(Cn2ccnc2)cc1` [Control Compound I, reference compound], the inhibition at 10 µM in data set [1] came out at 97.5%. The fraction unbound at 6 h, 1 μM worked out at 0.0023 in data set [2] (dog, pH 7.4, Canine plasma, read-out: fu % Canine); 0.0006 in data set [2] (pH 7.4, Human plasma, read-out: fu % Human); 0.0009 in data set [2] (pH 7.4, Mouse plasma, read-out: fu % Mouse); 0.0005 in data set [2] (pH 7.4, Rat plasma, read-out: fu % Rat). For the same compound, the half-life at 1 μM in data set [3] was 22.6 min; in data set [4] it was 49.1 min; in data set [5], 224 min. In data set [6], the “Papp mean value (10^−6 cm/s) A to B” value was 0.381 10^−6 cm/s.

The term inhibition denotes how much of the control response was suppressed.
